Assay results taken from the NIST ThermoML archive (doi:10.1021/je500114m).
Numbers after ± are expanded uncertainties. Values belong to the compound of their own block, whether it stands above or below them.

Test: mn = molality of the nth substance listed, in mol/kg
Settings: 298.15 K, Ring tensiometer

Structure (SMILES): CC/C=C\CCO [(Z)-3-hexen-1-ol] + O
- surface tension liquid-gas (m1 = 0.001): 69.5 ± 0.9 mN/m
- surface tension liquid-gas (m1 = 0.003): 65.2 ± 1.4 mN/m
- surface tension liquid-gas (m1 = 0.005): 63.5 ± 0.8 mN/m
- surface tension liquid-gas (m1 = 0.006): 61.5 ± 0.8 mN/m

Structure (SMILES): CC/C=C\CCOC(C)=O [(Z)-3-hexenyl acetate] + O
- surface tension liquid-gas (m1 = 0.0006): 66.8 ± 0.9 mN/m
- surface tension liquid-gas (m1 = 0.0015): 62.3 ± 0.8 mN/m
- surface tension liquid-gas (m1 = 0.0019): 58.7 ± 1.1 mN/m

Structure (SMILES): C=CC(C)(C)O [2-methyl-3-buten-2-ol] + O
- surface tension liquid-gas (m1 = 0.001): 70.6 ± 0.9 mN/m
- surface tension liquid-gas (m1 = 0.003): 69.7 ± 0.9 mN/m
- surface tension liquid-gas (m1 = 0.0052): 69.5 ± 0.9 mN/m
- surface tension liquid-gas (m1 = 0.0088): 67.7 ± 0.9 mN/m

Other lines, results leading:

- surface tension liquid-gas (m2 = 0): 70.8 ± 1 mN/m
Structure (SMILES): O [water] + C=CC(C)(C)O

- surface tension liquid-gas (m2 = 0): 71 ± 0.9 mN/m
Structure (SMILES): O [water] + COC(=O)c1ccccc1O

- surface tension liquid-gas (m2 = 0): 71.5 ± 0.9 mN/m
Structure (SMILES): O [water] + CC/C=C\CCO

- surface tension liquid-gas (m2 = 0): 70.2 ± 1 mN/m
Structure (SMILES): O [water] + CC/C=C\CCOC(C)=O

- surface tension liquid-gas (m1 = 0.001): 70.8 ± 0.9 mN/m
- surface tension liquid-gas (m1 = 0.0021): 70.1 ± 0.9 mN/m
- surface tension liquid-gas (m1 = 0.0031): 68.9 ± 0.9 mN/m
- surface tension liquid-gas (m1 = 0.0053): 65.2 ± 1.1 mN/m
Structure (SMILES): COC(=O)c1ccccc1O [methyl 2-hydroxybenzoate] + O
